Drawing on ChEMBL document CHEMBL1681651, “A broad spectrum anticancer nucleoside with selective toxicity against human colon cells in vitro” (2011), this text covers growth for one molecule.

Holding throughout (format): functional
The subject of one experiment is UACC-62. Description: Growth inhibition of human UACC62 cells assessed as cell growth at 10 uM after 48 hrs by SRB assay. The settings on record: UACC-62, 48 h, read-out: Activity. For orientation: The SRB assay estimates cell density from bound dye.
The subject of the next experiment is IGROV-1. Description: Growth inhibition of human IGROV1 cells assessed as cell growth at 10 uM after 48 hrs by SRB assay. As to conditions: IGROV-1, 48 h, read-out: Activity.
The next experiment has as its system K562. Description: Growth inhibition of human K562 cells assessed as cell growth at 10 uM after 48 hrs by SRB assay. As to conditions: K562, 48 h, read-out: Activity.
The next experiment concerns SK-MEL-28. Put plainly: Growth inhibition of human SK-MEL-28 cells assessed as cell growth at 10 uM after 48 hrs by SRB assay. As to conditions: SK-MEL-28, 48 h, read-out: Activity.
A further experiment relates to UO-31. Put plainly: Growth inhibition of human UO31 cells assessed as cell growth at 10 uM after 48 hrs by SRB assay. The settings on record: UO-31, 48 h, read-out: Activity.
Another experiment relates to ACHN. Put plainly: Growth inhibition of human ACHN cells assessed as cell growth at 10 uM after 48 hrs by SRB assay. The settings on record: read-out: Activity.
The nature of experiment [1]: Growth inhibition of human […] cells assessed as cell growth at 10 uM after 48 hrs by SRB assay. As to conditions: read-out: Activity.

For the molecule `CNC(=O)OC[C@H]1O[C@@H](n2cnc3c(NC(=O)Nc4ccccc4)ncnc32)[C@H](O[Si](C)(C)C(C)(C)C)[C@@H]1O[Si](C)(C)C(C)(C)C`, the growth at 10 µM amounted to 106% with UACC-62; 111% with IGROV-1; 75.4% with K562; 102% in the experiment with SK-MEL-28; 106% in the experiment with UO-31; 94.6% in the experiment with ACHN. Also, the growth at 10 µM in experiment [1] turned out to be 88.1%.
